# Source: ChEMBL document CHEMBL3734705, “Synthesis and in vitro cytotoxicity of novel C-12 substituted-14-deoxy-andrographolide derivatives as potent anti-cancer agents” (2015)
# What was measured:
# [1] = Cytotoxicity against human SNB75 cells assessed as growth level at 10 uM after 48 hrs by SRB assay; assay type: functional, SNB-75
# NCI-H23 = assay: Cytotoxicity against human NCI-H23 cells assessed as growth level at 10 uM after 48 hrs by SRB assay; assay type: functional
# [2] = Cytotoxicity against human OVCAR8 cells assessed as growth level at 10 uM after 48 hrs by SRB assay; assay type: functional, OVCAR-8
# SN12C = assay: Cytotoxicity against human SN12C cells assessed as growth level at 10 uM after 48 hrs by SRB assay; assay type: functional
# MCF7 = assay: Cytotoxicity against human MCF7 cells assessed as growth level at 10 uM after 48 hrs by SRB assay; assay type: functional
# [3] = Cytotoxicity against human Hs578T cells assessed as growth level at 10 uM after 48 hrs by SRB assay; assay type: functional, Hs-578T
# MDA-MB-231 = assay: Cytotoxicity against human MDA-MB-231 cells assessed as growth level at 10 uM after 48 hrs by SRB assay; assay type: functional
# U-251 = assay: Cytotoxicity against human U251 cells assessed as growth level at 10 uM after 48 hrs by SRB assay; assay type: functional
# T47D = assay: Cytotoxicity against human T47D cells assessed as growth level at 10 uM after 48 hrs by SRB assay; assay type: functional
# SK-MEL-2 = assay: Cytotoxicity against human SK-MEL-2 cells assessed as growth level at 10 uM after 48 hrs by SRB assay; assay type: functional
# SK-MEL-28 = assay: Cytotoxicity against human SK-MEL-28 cells assessed as growth level at 10 uM after 48 hrs by SRB assay; assay type: functional
# [4] = Cytotoxicity against human COLO205 cells assessed as growth level at 10 uM after 48 hrs by SRB assay; assay type: functional, COLO 205
# [5] = Cytotoxicity against human HCT116 cells assessed as growth level at 10 uM after 48 hrs by SRB assay; assay type: functional, HCT-116
# [6] = Cytotoxicity against human HCC2998 cells assessed as growth level at 10 uM after 48 hrs by SRB assay; assay type: functional, HCC 2998
# 786-0 = assay: Cytotoxicity against human 786-0 cells assessed as growth level at 10 uM after 48 hrs by SRB assay; assay type: functional
# [7] = Cytotoxicity against human BT549 cells assessed as growth level at 10 uM after 48 hrs by SRB assay; assay type: functional, BT-549
# MDA-MB-468 = assay: Cytotoxicity against human MDA-MB-468 cells assessed as growth level at 10 uM after 48 hrs by SRB assay; assay type: functional
# NCI-H226 = assay: Cytotoxicity against human NCI-H226 cells assessed as growth level at 10 uM after 48 hrs by SRB assay; assay type: functional
# [8] = Cytotoxicity against human OVCAR4 cells assessed as growth level at 10 uM after 48 hrs by SRB assay; assay type: functional, OVCAR-4
# [9] = Cytotoxicity against human SW620 cells assessed as growth level at 10 uM after 48 hrs by SRB assay; assay type: functional, SW-620
# [10] = Cytotoxicity against human NCI-ADR-RES cells assessed as growth level at 10 uM after 48 hrs by SRB assay; assay type: functional
# [11] = Cytotoxicity against human OVCAR3 cells assessed as growth level at 10 uM after 48 hrs by SRB assay; assay type: functional, OVCAR-3
# SR = assay: Cytotoxicity against human SR cells assessed as growth level at 10 uM after 48 hrs by SRB assay; assay type: functional
# CCRF-CEM = assay: Cytotoxicity against human CCRF-CEM cells assessed as growth level at 10 uM after 48 hrs by SRB assay; assay type: functional
# NCI-H460 = assay: Cytotoxicity against human NCI-H460 cells assessed as growth level at 10 uM after 48 hrs by SRB assay; assay type: functional
# [12] = Cytotoxicity against human TK10 cells assessed as growth level at 10 uM after 48 hrs by SRB assay; assay type: functional, TK-10
# [13] = Cytotoxicity against human RXF393 cells assessed as growth level at 10 uM after 48 hrs by SRB assay; assay type: functional, RXF 393
# [14] = Cytotoxicity against human HCT15 cells assessed as growth level at 10 uM after 48 hrs by SRB assay; assay type: functional, HCT-15
# [15] = Cytotoxicity against human UO31 cells assessed as growth level at 10 uM after 48 hrs by SRB assay; assay type: functional, UO-31
# [16] = Cytotoxicity against human UACC62 cells assessed as growth level at 10 uM after 48 hrs by SRB assay; assay type: functional, UACC-62
# A549 = assay: Cytotoxicity against human A549 cells assessed as growth level at 10 uM after 48 hrs by SRB assay; assay type: functional
# [17] = Cytotoxicity against human HOP62 cells assessed as growth level at 10 uM after 48 hrs by SRB assay; assay type: functional, HOP-62
# HT-29 = assay: Cytotoxicity against human HT-29 cells assessed as growth level at 10 uM after 48 hrs by SRB assay; assay type: functional
# [18] = Cytotoxicity against human HL-60(TB) cells assessed as growth level at 10 uM after 48 hrs by SRB assay; assay type: functional
# [19] = Cytotoxicity against human SF268 cells assessed as growth level at 10 uM after 48 hrs by SRB assay; assay type: functional, SF-268
# ACHN = assay: Cytotoxicity against human ACHN cells assessed as growth level at 10 uM after 48 hrs by SRB assay; assay type: functional
# MDA-MB-435 = assay: Cytotoxicity against human MDA-MB-435 cells assessed as growth level at 10 uM after 48 hrs by SRB assay; assay type: functional
# [20] = Cytotoxicity against human LOXIMVI cells assessed as growth level at 10 uM after 48 hrs by SRB assay; assay type: functional, LOX IMVI
# [21] = Cytotoxicity against human Caki1 cells assessed as growth level at 10 uM after 48 hrs by SRB assay; assay type: functional, CAKI-1
# [22] = Cytotoxicity against human UACC257 cells assessed as growth level at 10 uM after 48 hrs by SRB assay; assay type: functional, UACC-257
# [23] = Cytotoxicity against human SF295 cells assessed as growth level at 10 uM after 48 hrs by SRB assay; assay type: functional, SF-295
# NCI-H322M = assay: Cytotoxicity against human NCI-H322M cells assessed as growth level at 10 uM after 48 hrs by SRB assay; assay type: functional
# [24] = Cytotoxicity against human SNB19 cells assessed as growth level at 10 uM after 48 hrs by SRB assay; assay type: functional, SNB-19
# M14 = assay: Cytotoxicity against human M14 cells assessed as growth level at 10 uM after 48 hrs by SRB assay; assay type: functional
# [25] = Cytotoxicity against human HOP92 cells assessed as growth level at 10 uM after 48 hrs by SRB assay; assay type: functional, HOP-92
# [26] = Cytotoxicity against human RPMI8226 cells assessed as growth level at 10 uM after 48 hrs by SRB assay; assay type: functional, RPMI-8226
# EKVX = assay: Cytotoxicity against human EKVX cells assessed as growth level at 10 uM after 48 hrs by SRB assay; assay type: functional
# Malme-3M = assay: Cytotoxicity against human MALME-3M cells assessed as growth level at 10 uM after 48 hrs by SRB assay; assay type: functional
# KM12 = assay: Cytotoxicity against human KM12 cells assessed as growth level at 10 uM after 48 hrs by SRB assay; assay type: functional
# [27] = Cytotoxicity against human SKOV3 cells assessed as growth level at 10 uM after 48 hrs by SRB assay; assay type: functional, SK-OV-3
# [28] = Cytotoxicity against human MOLT4 cells assessed as growth level at 10 uM after 48 hrs by SRB assay; assay type: functional, MOLT-4
# A498 = assay: Cytotoxicity against human A498 cells assessed as growth level at 10 uM after 48 hrs by SRB assay; assay type: functional
# [29] = Cytotoxicity against human OVCAR5 cells assessed as growth level at 10 uM after 48 hrs by SRB assay; assay type: functional, OVCAR-5
# [30] = Cytotoxicity against human IGROV1 cells assessed as growth level at 10 uM after 48 hrs by SRB assay; assay type: functional, IGROV-1
# K562 = assay: Cytotoxicity against human K562 cells assessed as growth level at 10 uM after 48 hrs by SRB assay; assay type: functional
# [31] = Cytotoxicity against human SF539 cells assessed as growth level at 10 uM after 48 hrs by SRB assay; assay type: functional, SF-539
# [32] = Cytotoxicity against human PC3 cells assessed as growth level at 10 uM after 48 hrs by SRB assay; assay type: functional, PC-3
# [33] = Cytotoxicity against human DU145 cells assessed as growth level at 10 uM after 48 hrs by SRB assay; assay type: functional, DU-145
# SK-MEL-5 = assay: Cytotoxicity against human SK-MEL-5 cells assessed as growth level at 10 uM after 48 hrs by SRB assay; assay type: functional
# NCI-H522 = assay: Cytotoxicity against human NCI-H522 cells assessed as growth level at 10 uM after 48 hrs by SRB assay; assay type: functional
smiles,measurement,setting,value
C=C1CC[C@@H]2[C@](C)(COC(C)=O)[C@H](OC(C)=O)CC[C@@]2(C)[C@@H]1CC(NC1CC1)C1=CCOC1=O (mixture of isomers),Activity,[1],90.39%
same,Activity,NCI-H23,98.94%
same,Activity,[2],105.48%
same,Activity,SN12C,101.14%
same,Activity,MCF7,85.36%
same,Activity,[3],110.62%
same,Activity,MDA-MB-231,100.99%
same,Activity,U-251,96.2%
same,Activity,T47D,79.56%
same,Activity,SK-MEL-2,104.35%
same,Activity,SK-MEL-28,107.72%
same,Activity,[4],106.86%
same,Activity,[5],88.19%
same,Activity,[6],102.97%
same,Activity,786-0,107.45%
same,Activity,[7],86.41%
same,Activity,MDA-MB-468,91.77%
same,Activity,NCI-H226,106.3%
same,Activity,[8],101.59%
same,Activity,[9],115.37%
same,Activity,[10],98.35%
same,Activity,[11],96.85%
same,Activity,SR,73.84%
same,Activity,CCRF-CEM,95.35%
same,Activity,NCI-H460,105.35%
same,Activity,[12],98.64%
same,Activity,[13],116.59%
same,Activity,[14],93.63%
same,Activity,[15],82.44%
same,Activity,[16],84.5%
same,Activity,A549,82.92%
same,Activity,[17],102.23%
same,Activity,HT-29,100.7%
same,Activity,[18],102.95%
same,Activity,[19],93.53%
same,Activity,ACHN,98.37%
same,Activity,MDA-MB-435,96.33%
same,Activity,[20],94%
same,Activity,[21],98.25%
same,Activity,[22],100.57%
same,Activity,[23],97.25%
same,Activity,NCI-H322M,98.57%
same,Activity,[24],100.97%
same,Activity,M14,93.67%
same,Activity,[25],83.7%
same,Activity,[26],70.32%
same,Activity,EKVX,86.69%
same,Activity,Malme-3M,89.64%
same,Activity,KM12,90.49%
same,Activity,[27],102.92%
same,Activity,[28],87.21%
same,Activity,A498,102.06%
same,Activity,[29],110.21%
same,Activity,[30],96%
same,Activity,K562,74.16%
same,Activity,[31],95.4%
same,Activity,[32],77.06%
same,Activity,[33],98.78%
same,Activity,SK-MEL-5,96.5%
same,Activity,NCI-H522,78.4%
C=C1CC[C@@H]2[C@](C)(COC(C)=O)[C@H](OC(C)=O)CC[C@@]2(C)[C@@H]1CC(NCCCCCCCCCCCCCCCCCC)C1=CCOC1=O (mixture of isomers),Activity,[1],87.94%
same,Activity,NCI-H23,100.06%
same,Activity,[2],104.57%
same,Activity,SN12C,103.39%
same,Activity,MCF7,101.73%
same,Activity,[3],103.17%
same,Activity,MDA-MB-231,96.62%
same,Activity,U-251,101.78%
same,Activity,T47D,97.23%
same,Activity,SK-MEL-28,111.23%
same,Activity,[4],103.75%
same,Activity,[5],105.04%
same,Activity,[6],114%
same,Activity,786-0,106.62%
same,Activity,[7],106.47%
same,Activity,MDA-MB-468,99.82%
same,Activity,NCI-H226,92.06%
same,Activity,[8],114.35%
same,Activity,[9],101.13%
same,Activity,[10],101.33%
same,Activity,[11],103.35%
same,Activity,SR,101.94%
same,Activity,CCRF-CEM,104.64%
same,Activity,NCI-H460,105.91%
same,Activity,[12],102.72%
same,Activity,[13],109.25%
same,Activity,[14],117.13%
same,Activity,[15],88.83%
same,Activity,[16],97.28%
same,Activity,A549,101.56%
same,Activity,[17],96.46%
same,Activity,HT-29,103.31%
same,Activity,[18],100.5%
same,Activity,[19],100.29%
same,Activity,ACHN,113.27%
same,Activity,MDA-MB-435,107%
same,Activity,[20],98.11%
same,Activity,[21],97.66%
same,Activity,[22],108.48%
same,Activity,[23],112.48%
same,Activity,NCI-H322M,102.69%
same,Activity,[24],102.65%
same,Activity,M14,102.16%
same,Activity,[25],80.59%
same,Activity,[26],101.07%
same,Activity,EKVX,111.12%
same,Activity,Malme-3M,111.94%
same,Activity,KM12,107.75%
same,Activity,[27],102.04%
same,Activity,[28],95.91%
same,Activity,A498,100.06%
same,Activity,[29],108.25%
same,Activity,[30],110.04%
same,Activity,K562,104.45%
same,Activity,[31],101.6%
same,Activity,[32],89.57%
same,Activity,[33],108.9%
same,Activity,SK-MEL-5,101.04%
same,Activity,NCI-H522,98.04%
